Measurements published in patent publication US8771973B2, “Methods for treating bleeding disorders using sulfated polysaccharides” (Baxter Healthcare S.A., priority 2004, dated 2014).
Marks after values point to notes of the source that are not given here.

Columns and labels:
[1] = system: Hem-A mice; test: First fucoidan study, survival of Hem-A mice after bleeding test; format: in vivo; details: vehicle 1/6
Protocol: Given the improved potency and magnitude of efficacy of fucoidan relative to PPS in some of the clotting assays described above, additional studies were performed in Hem-A mice with fucoidan. In the first study with fucoidan, nearly the same regimen as described for PPS was adopted, but with slightly different dose levels. Hem-A male mice were administered fucoidan at a dose of 0.1 or 1.0 mg/kg or saline subcutaneously twice daily for 4 days. On the morning of the 5th day, mice received a doubled dose of fucoidan prior to the bleeding test. Survival and animal behavior were evaluated for mice treated with fucoidan compared to vehicle controls.
In the first study, treatment of mice with fucoidan at a dose of 0.1 mg/kg appeared to be more efficacious than treatment at a dose of 1.0 mg/kg (survival at about 10 hours was 1/6 for vehicle, 4/6 for 0.1 mg/kg, and 3/6 for 1.0 mg/kg).

[2] = target: T1, TFPI (Homo sapiens, UniProt P10646); test: dPT assay, inhibition of TFPI activity in Hem-A plasma, TFPI preincubated with NASP; format: biochemical; details: Hem-A + TFPI, preincubation, plasma alone 44, + TFPI 151 seconds
T1 construct: purchased American Diagnostica (Stamford, Conn.)
T1 sequence (P10646 29-304): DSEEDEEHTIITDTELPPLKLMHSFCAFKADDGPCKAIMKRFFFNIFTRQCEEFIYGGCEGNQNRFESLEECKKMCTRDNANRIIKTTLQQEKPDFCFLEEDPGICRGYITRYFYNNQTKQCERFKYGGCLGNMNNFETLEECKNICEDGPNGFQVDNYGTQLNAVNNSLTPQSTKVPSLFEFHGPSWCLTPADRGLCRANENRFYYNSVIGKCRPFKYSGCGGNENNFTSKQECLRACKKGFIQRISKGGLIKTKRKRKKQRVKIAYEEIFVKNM
Protocol: (§1) The dPT assay used was a modified standard clinical PT assay (Nordfang et al. (1991) Thromb Haemost 66:464-467; Welsch et al. (1991) Thrombosis Research 64: 213-222). SIMPLASTIN EXCEL thromboplastin reagent (Organon Teknika) was reconstituted with the manufacturer's diluent and further diluted 1:100 in 0.9% saline. The thromboplastin reagent, 25 mM CaCl2, and plasma samples were pre-warmed to 37° C. before initiating the assay. 100 μl of thawed plasma was aliquoted into microcentrifuge tubes. […] 100 μl of the diluted thromboplastin reagent and 100 μl of 25 mM CaCl2 were added to fibrin cups (Fisher) prewarmed to 37° C. 100 μl of plasma (normal or hemophilic) containing the test agent or saline control was added to the fibrin cups containing the thromboplastin reagent and CaCl2 to initiate clotting. The time for plasma clotting was measured with a BBL FIBROSYSTEM fibrometer.
Inhibition of TFPI activity by NASPs was assessed in dPT clotting assays with normal or hemophilic plasma and added recombinant TFPI. Diluted recombinant TFPI was preincubated with NASPs for 5 minutes at room temperature before plasma was added. After addition of plasma, the mixture was incubated for an additional 25 minutes followed by dPT initiation.

[3] = system: rabbits; details: intravenously at 10 mg/kg; cited from earlier work
[4] = system: Hem-A mice; test: Second fucoidan study, fucoidan +/- FVIII, survival of Hem-A mice after tail vein transection; format: in vivo; details: fucoidan 0.1 mg/kg s.c. twice daily 4.5 days, FVIII 1.25% reconstitution 2 hours prior
Protocol: In a second study with fucoidan, combination therapy potential with factor VIII was evaluated. This study was performed as described above, except on the morning of the fifth day, mice received an intravenous bolus dose of 53 mU/mouse FVIII (about 1.25% of the normal level of FVIII) in a tail vein far up near the body. As before, the lateral tail vein, and not the artery, was transected 2 hours later at the region corresponding to a diameter of about 2.7 mm. […] Survival and clinical observations were recorded for 20-24 hours.

[5] = system: Hem-A plasma; test: dPT assay, Hem-A plasma in absence of exogenous TFPI; format: biochemical, human; details: Hem-A, no exogenous TFPI, no NASP 69 seconds
Protocol: as §1
The ability of NASPs to accelerate clotting of factor-deficient plasma in the absence of TFPI supplementation was also tested in dPT assays. A procoagulant response, if observed, may be related to neutralization of endogenous TFPI activity, which is present in human plasma at approximately 100 ng/ml (Nordfang et al., supra), largely associated with lipoprotein or platelets (Broze et al. (1992) Semin. Hematol. 29:159-169; Broze et al. (2003) J. Thromb. Haemost. 1:1671-1675).
The ability of NASPs to accelerate clotting of Hem-A plasma in the absence of exogenous TFPI was tested. Fucoidan or PPS were titrated into Hem A plasma and dPT assays were performed. Additionally, the dose-response to factor VIIa was analyzed as a positive control for amplifying extrinsic pathway activation.

[6] = system: rats; details: subcutaneously; cited from earlier work
[7] = system: Hem-B mice; test: Survival after tail clip, PPS-treated Hem-B mice; format: in vivo; details: 0.06 mg/kg s.c. twice daily 4.5 days, vehicle 25, p = 0.07
Protocol: (§2) Hem-A mice (homozygous for the exon 16 FVIII KO allele) were licensed from John Hopkins University, and Hem-B mice (homozygous for the exon 1-3 FIX KO) were licensed from University of North Carolina at Chapel Hill. All animal procedures were performed according to “Guide for the Care and Use of Laboratory Animals” (National Research Council. Guide for the care and use of laboratory animals. Washington, D.C.: National Academy Press; 1996) and all procedures were reviewed and approved by an institutional animal care and use committee.
(§3) A. PPS Efficacy in Hem-A and Hem-B Mice The efficacy of PPS in improving clotting in Hem-A and Hem-B mice was tested. Hem-A and Hem-B male or female mice were administered PPS at a dose of 0.02, 0.06, or 0.2 mg/kg or saline vehicle subcutaneously twice daily for […]. On the morning of the fifth day after dosing, the tail was clipped 1 cm from the tip, and behavior and survival were monitored for the next 20-24 hours.

[8] = system: Hem-A mice; test: Survival after tail clip, PPS-treated Hem-A mice; format: in vivo
Protocol: as §2, §3

Substance | clotting time, dPT ([2]; 0.16 nM) [s] | clotting time, dPT ([2]; 0.8 nM) [s] | clotting time, dPT ([2]; 4 nM) [s] | clotting time, dPT ([2]; 20 nM) [s] | clotting time, dPT ([2]; 100 nM) [s] | clotting time, dPT ([2]; 500 nM) [s] | clotting time, dPT ([5]; 0.16 nM) [s] | clotting time, dPT ([5]; 0.8 nM) [s] | clotting time, dPT ([5]; 4 nM) [s] | clotting time, dPT ([5]; 20 nM) [s] | clotting time, dPT ([5]; 100 nM) [s] | other results
Fucoidan | 130 | 108 | 72 | 54 | 46 | 75 | 70 | 68 | 63 | ~55 | 56 | survival at about 10 hours ([1]; 0.1 mg/kg s.c. twice daily): 4/6; survival at about 10 hours ([1]; 1.0 mg/kg s.c. twice daily): 3/6; tolerability [3]: well-tolerated; % Survival 9 hr ([4]; 9 hr after tail vein incision, vehicle 21): 61 * %; % Survival 20 hr ([4]; 20 hr after tail vein incision, vehicle 7): 38 ^+ %
Pentosan Polysulphate Sodium [PPS] | 158 | 111 | 91 | 55 | 57 | 74 | 69 | 68 | 66 | 62 | 60 | doses required to prolong clotting [6]: > 5 mg/kg; % Survival (20 hours post-cut) [7]: 44 ^# %; % Survival (20 hours post-cut) ([8]; 0.02 mg/kg s.c. twice daily 4.5 days, vehicle 25): 20 ^ %; % Survival (20 hours post-cut) ([8]; 0.06 mg/kg s.c. twice daily 4.5 days, vehicle 25, p = 0.07): 44 ^# %; improvement in survival ([8]; 0.06 mg/kg, not statistically significant (0.05<p<0.1)): nearly two-fold improvement in survival; % Survival (20 hours post-cut) ([8]; 0.2 mg/kg s.c. twice daily 4.5 days, vehicle 25): 40 ^ %
